Results reported in patent publication US6660772B2, “Use of 2-amino-1-(4-hydroxy-2-methanesulfonamidophenyl)ethanol for treating urinary incontinence” (Boehringer Ingelheim Pharma KG, priority 2001, dated 2003).

System: dog
Assay: Activity (maximum contraction) in the dog compared with noradrenaline
Conditions: percentage of contraction compared with noradrenaline
Experimental: The efficacy and selectivity of the compound according to the invention is determined as follows, using the same findings as described in 1:
Maximum contraction in the dog and activity on human urethra are percentages of contraction compared with noradrenaline. Selectivity in the dog is the difference obtained from the percentage contraction of the dog's femoral artery at 10^−5 M and percentage contraction of the carotid artery in the dog at 10^−5 M.

Row | Structure (SMILES) | Activity in the Dog (maximum contraction)
1 | CS(=O)(=O)Nc1cc(C(O)CN)ccc1O (centres unmarked) [Compound 1, 2-amino-1-(4-hydroxy-3-methanesulfonamidophenyl)ethanol] | 103%
2 | CS(=O)(=O)Nc1ccc(F)c([C@@H](O)CN)c1 [Compound 2, (−)-R-2-Amino-1-(2-fluoro-5-methanesulfonamidophenyl)ethanol] | 79%
